In paper PMC6986439, “Sultiame pharmacokinetic profile in plasma and erythrocytes after single oral doses: A pilot study in healthy volunteers” (Pharmacology Research & Perspectives, 2020):

Assays:
[1] = tested on: erythrocytes; assay: In vitro competition studies with zonisamide and topiramate in whole blood; assay type: in vitro ADME, human; settings: not influenced by the addition of sultiame; data not shown
Protocol: In addition, competition studies were performed with two other antiepileptic agents known for their affinity for CA (zonisamide and topiramate), added at equimolar concentration to 20 mg/L of sultiame. Similar ranges of inhibition constants for CA II were reported in the literature for these three substances.13 Samples (1 mL) were drawn before and at 2, 4, 6, 8, 10, 15, 20, 30, 45, 60, and 120 min after addition of the competitor. Sultiame, zonisamide, and topiramate concentrations were then analyzed. All samples were centrifuged at 18 620 g for 1 minutes at 4°C. Plasma, erythrocyte, and urine fractions were stored separately at − 80°C prior to analysis for a maximum of 9 months. For analysis, plasma and hemolyzed erythrocytes samples were subjected to protein precipitation with MeOH containing the internal‐standard sultiame D4 and quantified with the previously described HPLC‐MS/MS method, using matrix‐matched calibration and quality controls. The sultiame concentrations determined in erythrocytes were corrected for the 10% interstitial plasma remnant in the erythrocyte fraction after centrifugation.14

[2] = set-up: method as in earlier work; settings: main metabolite identified in urines ref 8; cited from earlier work

Row | erythrocyte/plasma ratio [1] | Compound | activity of metabolite [2]
1 | ~1 | CC1(C)O[C@@H]2[C@@H](CO[C@@]3(COS(N)(=O)=O)OC(C)(C)O[C@@H]23)O1 [topiramate] | –
2 | – | hydroxy‐sultiame | inactive
